In article PMC13504986 (Nature, 2024):

Tests used:
OR51E1 = biological target: T1, OR51E1 (Homo sapiens, UniProt Q8TCB6); test: GloSensor cAMP assay, HEK293T; format: cell-based
T1 sequence (Q8TCB6 2-318 limits assumed): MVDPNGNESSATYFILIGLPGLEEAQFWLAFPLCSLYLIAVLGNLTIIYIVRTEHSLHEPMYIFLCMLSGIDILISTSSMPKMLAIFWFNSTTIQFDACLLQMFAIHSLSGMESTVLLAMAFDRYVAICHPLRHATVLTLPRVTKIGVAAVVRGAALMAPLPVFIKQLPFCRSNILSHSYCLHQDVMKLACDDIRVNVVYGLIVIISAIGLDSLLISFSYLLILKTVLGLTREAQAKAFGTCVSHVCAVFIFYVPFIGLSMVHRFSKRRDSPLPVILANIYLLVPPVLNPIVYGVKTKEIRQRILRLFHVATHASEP

OR1A1 = biological target: T2, OR1A1 (Homo sapiens, UniProt Q9P1Q5); test: GloSensor cAMP assay, HEK293T with RTP1S; format: cell-based
T2 sequence (Q9P1Q5 1-309): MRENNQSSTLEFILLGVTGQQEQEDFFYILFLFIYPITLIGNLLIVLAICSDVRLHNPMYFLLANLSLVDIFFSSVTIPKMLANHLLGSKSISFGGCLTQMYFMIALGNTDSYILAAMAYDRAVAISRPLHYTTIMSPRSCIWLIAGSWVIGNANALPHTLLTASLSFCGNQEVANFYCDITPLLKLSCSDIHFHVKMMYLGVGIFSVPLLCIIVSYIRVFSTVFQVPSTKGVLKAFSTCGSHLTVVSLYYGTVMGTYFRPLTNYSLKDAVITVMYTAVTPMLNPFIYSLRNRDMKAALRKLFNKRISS

EC50 (OR51E1) [µM]	EC50 (OR1A1) [µM]	Compound
34.7	–	CCCCC(=O)O [pentanoate]
–	38.9	CC(C)[C@@H]1CC[C@@H](C)C[C@H]1O [L-menthol]
–	0.513	C=C(C)[C@@H]1CC=C(C)C(=O)C1 [R-carvone]
